Data set [1] relates to genotype 1a-H77 subgenomic replicon cell line. Kind of data set: microbe, parasite or virus in culture. It counts as cell-based, HCV. Particulars: Hepatitis C virus, read-out: EC50 1a.
The test system of data set [2] is genotype 1b-Con1 subgenomic replicon cell line. Kind of data set: microbe, parasite or virus in culture. As to conditions: Hepatitis C virus, read-out: EC50 1b. It counts as cell-based, HCV.
For a further data set, the system named is HCV. Particulars: hepatitis C treatment regimens, background; cited from earlier work.
Data set [3] concerns the target T1, HCV polymerase 1A (Δ21 NS5B, H77) (Hepatitis C virus genotype 1a, UniProt P27958).
T1 construct: 20 to 50 nM Δ21 NS5B
Kind of data set: biochemical. As to conditions: IC50 1a. In a few lines:
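Radiometric assay with Δ21 NS5B (H77): 20 μM CTP, 20 μM ATP, 1 μM ^3H-UTP, 5 nM template RNA, 2–4 h at room temperature. RNA precipitated with spermine, filter-captured and counted. IC50 from non-linear fit of retained cpm vs inhibitor concentration (tight-binding equation).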

Data set [4] deals with T2, HCV polymerase 1B (Δ21 NS5B, BK) (Hepatitis C virus genotype 1b, UniProt P26663).
T2 construct: 20 to 50 nM Δ21 NS5B
Kind of data set: biochemical. In a few lines:
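Δ21 NS5B (genotype 1b, BK […]) preincubated 15 min RT with inhibitor, 2 mM MnCl2, pH 7.4, 60–125 μM GTP; started with 20 μM CTP/ATP, 1 μM 3H-UTP, 5 nM template RNA, run 2–4 h RT. Spermine-precipitated RNA filter-captured, scintillation counted; IC50 from tight-binding (Morrison) fit.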

Where only a bound is given, the exact number is not on record here.

T1 sequence (P27958 2421-2990, stated change not applied): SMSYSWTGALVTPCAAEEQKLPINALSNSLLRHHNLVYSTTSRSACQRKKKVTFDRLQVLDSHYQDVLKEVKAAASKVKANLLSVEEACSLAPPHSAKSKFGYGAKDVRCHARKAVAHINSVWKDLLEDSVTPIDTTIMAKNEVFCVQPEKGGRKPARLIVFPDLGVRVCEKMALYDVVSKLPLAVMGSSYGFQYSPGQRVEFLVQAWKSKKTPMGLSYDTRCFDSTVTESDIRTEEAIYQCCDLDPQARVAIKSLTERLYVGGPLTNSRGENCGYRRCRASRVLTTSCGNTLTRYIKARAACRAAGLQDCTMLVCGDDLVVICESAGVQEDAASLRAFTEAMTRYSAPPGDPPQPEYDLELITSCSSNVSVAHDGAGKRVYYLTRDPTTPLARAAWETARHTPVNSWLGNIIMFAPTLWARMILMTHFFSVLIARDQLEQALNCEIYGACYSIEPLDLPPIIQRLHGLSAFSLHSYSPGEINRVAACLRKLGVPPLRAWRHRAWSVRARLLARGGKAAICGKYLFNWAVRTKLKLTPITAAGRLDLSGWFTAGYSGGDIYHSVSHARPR
T2 sequence (P26663 2420-2989, stated change not applied): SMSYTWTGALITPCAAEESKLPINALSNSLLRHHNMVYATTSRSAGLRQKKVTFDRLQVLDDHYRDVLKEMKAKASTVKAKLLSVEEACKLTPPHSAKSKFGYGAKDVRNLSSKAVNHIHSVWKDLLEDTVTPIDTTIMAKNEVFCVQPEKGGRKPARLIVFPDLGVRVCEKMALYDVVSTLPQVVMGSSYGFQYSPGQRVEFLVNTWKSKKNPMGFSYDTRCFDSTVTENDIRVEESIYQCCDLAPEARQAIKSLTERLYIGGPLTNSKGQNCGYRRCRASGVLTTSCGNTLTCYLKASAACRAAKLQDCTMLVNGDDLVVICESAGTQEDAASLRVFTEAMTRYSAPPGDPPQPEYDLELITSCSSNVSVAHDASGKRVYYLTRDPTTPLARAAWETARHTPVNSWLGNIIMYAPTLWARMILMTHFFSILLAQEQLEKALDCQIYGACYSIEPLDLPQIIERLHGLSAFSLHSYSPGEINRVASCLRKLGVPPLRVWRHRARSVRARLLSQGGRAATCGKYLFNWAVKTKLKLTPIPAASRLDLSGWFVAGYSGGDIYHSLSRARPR

In general, melting point refers to the temperature of the solid-liquid transition. `COc1c(C#C[Si](C)(C)C)cc(-n2ccc(=O)[nH]c2=O)cc1-c1ccc2cc(NS(C)(=O)=O)ccc2c1` [IB-L0-2.78, N-(6-(5-(2,4-dioxo-3,4-dihydropyrimidin-1(2H)-yl)-2-methoxy-3-((trimethylsilyl)ethynyl)phenyl)naphthalen-2-yl)methanesulfonamide]: the melting point is 175 to 178 °C.
In general, EC50 refers to the midpoint of the concentration-response curve. `CC(C)(C)c1cc(-n2ccc(=O)[nH]c2=O)cc(-c2ccc3cc(NS(C)(=O)=O)ccc3c2)c1Cl` [IB-L0-2.14, N-(6-(3-tert-butyl-2-chloro-5-(2,4-dioxo-3,4-dihydropyrimidin-1(2H)-yl)phenyl)naphthalen-2-yl)methanesulfonamide] gave a melting point above 280 °C. The EC50 in data set [1] was in the range of 100 to 1000 nM. In data set [2], the EC50 was 10 to 100 nM.
Regarding `NC(=O)c1ncn([C@@H]2O[C@H](CO)[C@@H](O)[C@H]2O)n1` [ribavirin], the “suppression of HCV levels / effectiveness” value in the data set with HCV is recorded as “does not effectively suppress HCV levels”.
`COc1c(-c2ccc3cc(NS(C)(=O)=O)ccc3c2)cc(-n2ccc(=O)[nH]c2=O)cc1C(F)(F)C(F)(F)F` [IB-L0-2.60, N-(6-(5-(2,4-dioxo-3,4-dihydropyrimidin-1(2H)-yl)-2-methoxy-3-(perfluoroethyl)phenyl)naphthalen-2-yl)methanesulfonamide] registered a melting point of 162 to 165 °C. Further, the EC50 in data set [1] lay within 100 to 1000 nM. The EC50 in data set [2] is 10 to 100 nM.
The compound `COc1c(-c2ccc3cc(NS(C)(=O)=O)ccc3c2)cc(-n2ccc(=O)[nH]c2=O)cc1C(C)(C)CO` [IB-L0-2.54, N-(6-(5-(2,4-dioxo-3,4-dihydropyrimidin-1(2H)-yl)-3-(1-hydroxy-2-methylpropan-2-yl)-2-methoxyphenyl)naphthalen-2-yl)methanesulfonamide] registered a melting point of 256 to 257 °C. In addition, in data set [1], the EC50 fell in the range of 10 to 100 nM. Also, the EC50 in data set [2] lay within 10 to 100 nM.
`COc1c(-c2ccc3cc(NS(C)(=O)=O)ccc3c2)cc(-n2ccc(=O)[nH]c2=O)cc1C(C)(C)C(=O)O` [IB-L0-2.77, 2-(5-(2,4-dioxo-3,4-dihydropyrimidin-1(2H)-yl)-2-methoxy-3-(6-(methylsulfonamido)naphthalen-2-yl)phenyl)-2-methylpropanoic acid]: the melting point was above 300 °C.
`COc1c(-c2ccc3cc(NS(C)(=O)=O)ccc3c2)cc(-n2ccc(=O)[nH]c2=O)cc1-c1ccc(C)o1` [IB-L0-2.58, N-(6-(5-(2,4-dioxo-3,4-dihydropyrimidin-1(2H)-yl)-2-methoxy-3-(5-methylfuran-2-yl)phenyl)naphthalen-2-yl)methanesulfonamide] had a melting point of 174 to 178 °C. Also, the EC50 in data set [1] fell in the range of 10 to 100 nM. For the same compound, the concentration for a half-maximal effect (EC50) in data set [2] was below 10 nM.
For `CCOc1c(-c2ccc3cc(NS(C)(=O)=O)ccc3c2)cc(-n2ccc(=O)[nH]c2=O)cc1C(C)(C)C` [IB-L0-2.23, N-(6-(3-tert-butyl-5-(2,4-dioxo-3,4-dihydropyrimidin-1(2H)-yl)-2-ethoxyphenyl)naphthalen-2-yl)methanesulfonamide] the same measures were 196 to 202 °C, 100 to 1000 nM and 10 to 100 nM.
By IC50 is commonly meant the concentration at which inhibition is half-maximal. Read a high IC50 as weaker potency in that assay. For the compound `COc1c(C(=O)Nc2ccc(N)cc2)cc(N2CCC(=O)NC2=O)cc1C(C)(C)C` [IA-L3-1.107, N-(4-aminophenyl)-3-tert-butyl-5-(2,4-dioxotetrahydropyrimidin-1(2H)-yl)-2-methoxy benzamide], the IC50 in data set [3] and in data set [4] was above 1000 nM in each case. Besides, the EC50 in data set [1] and in data set [2] was above 1000 nM each time.
